Results published in PubChem BioAssay (NCI).
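All cell lines were grown in 96-well plates and treated with compound for 48 hours. The concentration for full growth arrest is given as TGI.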

Tests used:
Assay in all cases: NCI-60 cell line screen, 48 h
[1] = test system: HOP-62 NSCLC
[2] = test system: RPMI-8226 leukemia
[3] = test system: SW-620 colon
[4] = test system: UO-31 renal
[5] = test system: SF-295 CNS
[6] = test system: SK-OV-3 ovarian
[7] = test system: ACHN renal
[8] = test system: SNB-19 CNS
[9] = test system: KM20L2 colon
[10] = test system: M14 melanoma
[11] = test system: SR leukemia
[12] = test system: SF-539 CNS
[13] = test system: NCI-H226 lung
[14] = test system: HOP-92 NSCLC
[15] = test system: SNB-78 CNS
[16] = test system: U251 CNS
[17] = test system: NCI-H460 lung
[18] = test system: HCC-2998 colon
[19] = test system: HT29 colon
[20] = test system: MALME-3M melanoma
[21] = test system: RXF-631 renal
[22] = test system: SK-MEL-5 melanoma
[23] = test system: HCT-116 colon
[24] = test system: K-562 leukemia
[25] = test system: A549 NSCLC
[26] = test system: COLO 205 colon
[27] = test system: SF-268 CNS
[28] = test system: 786-0 renal
[29] = test system: EKVX NSCLC
[30] = test system: CCRF-CEM leukemia
[31] = test system: SNB-75 CNS
[32] = test system: M19-MEL melanoma
[33] = test system: HOP-18 NSCLC
[34] = test system: NCI-H522 lung
[35] = test system: LOX IMVI melanoma
[36] = test system: RXF 393 renal
[37] = test system: OVCAR-8 ovarian
[38] = test system: IGROV1 ovarian
[39] = test system: NCI-H23 lung
[40] = test system: OVCAR-4 ovarian
[41] = test system: MOLT-4 leukemia
[42] = test system: HCT-15 colon
[43] = test system: HL-60(TB) leukemia
[44] = test system: A498 renal
[45] = test system: UACC-257 melanoma
[46] = test system: UACC-62 melanoma
[47] = test system: OVCAR-3 ovarian
[48] = test system: SK-MEL-28 melanoma
[49] = test system: LXFL 529 NSCLC
[50] = test system: DLD-1 colon
[51] = test system: OVCAR-5 ovarian
[52] = test system: CAKI-1 renal
[53] = test system: TK-10 renal
[54] = test system: KM12 colon
[55] = test system: DMS 114 small cell lung
[56] = test system: SN12C renal
[57] = test system: DMS 273 small cell lung
[58] = test system: XF 498 CNS
[59] = test system: SK-MEL-2 melanoma

C#CCNC(=O)NCCCC(NC(C)=O)C(=O)NCc1ccccc1 (centres undefined)
TGI [1]: > 100 µM
TGI [2]: > 100 µM
TGI [3]: > 100 µM
TGI [4]: > 100 µM
TGI [5]: > 100 µM
TGI [6]: > 100 µM
TGI [7]: > 100 µM
TGI [8]: > 100 µM
TGI [9]: > 100 µM
TGI [10]: > 100 µM
TGI [11]: > 100 µM
TGI [12]: > 100 µM
TGI [13]: > 100 µM
TGI [14]: > 100 µM
TGI [15]: > 100 µM
TGI [16]: > 100 µM
TGI [17]: > 100 µM
TGI [18]: > 100 µM
TGI [19]: > 100 µM
TGI [20]: > 100 µM
TGI [21]: > 100 µM
TGI [22]: > 100 µM
TGI [23]: > 100 µM
TGI [24]: > 100 µM
TGI [25]: > 100 µM
TGI [26]: > 100 µM
TGI [27]: > 100 µM
TGI [28]: > 100 µM
TGI [29]: > 100 µM
TGI [30]: > 100 µM
TGI [31]: > 100 µM
TGI [32]: > 100 µM
TGI [33]: > 100 µM
TGI [34]: > 100 µM
TGI [35]: > 100 µM
TGI [36]: > 100 µM
TGI [37]: > 100 µM
TGI [38]: > 100 µM
TGI [39]: > 100 µM
TGI [40]: > 100 µM
TGI [41]: > 100 µM
TGI [42]: > 100 µM
TGI [43]: > 100 µM
TGI [44]: > 100 µM
TGI [45]: > 100 µM
TGI [46]: > 100 µM
TGI [47]: > 100 µM
TGI [48]: > 100 µM
TGI [49]: > 100 µM
TGI [50]: > 100 µM
TGI [51]: > 100 µM
TGI [52]: > 100 µM
TGI [53]: > 100 µM
TGI [54]: > 100 µM
TGI [55]: > 100 µM
TGI [56]: > 100 µM

CCOCN1COCN=C1NC#N
TGI [1]: > 100 µM
TGI [57]: > 100 µM
TGI [3]: 35.3 µM
TGI [4]: > 100 µM
TGI [5]: > 100 µM
TGI [6]: > 100 µM
TGI [7]: > 100 µM
TGI [8]: > 100 µM
TGI [9]: > 100 µM
TGI [10]: > 100 µM
TGI [11]: 76.5 µM
TGI [12]: > 100 µM
TGI [13]: > 100 µM
TGI [14]: > 100 µM
TGI [15]: > 100 µM
TGI [16]: > 100 µM
TGI [17]: > 100 µM
TGI [18]: > 100 µM
TGI [19]: > 100 µM
TGI [20]: > 100 µM
TGI [21]: > 100 µM
TGI [22]: > 100 µM
TGI [23]: > 100 µM
TGI [58]: > 100 µM
TGI [24]: > 100 µM
TGI [25]: > 100 µM
TGI [26]: 69.7 µM
TGI [27]: > 100 µM
TGI [28]: > 100 µM
TGI [29]: > 100 µM
TGI [31]: > 100 µM
TGI [33]: > 100 µM
TGI [34]: > 100 µM
TGI [36]: 34.7 µM
TGI [37]: > 100 µM
TGI [38]: > 100 µM
TGI [39]: > 100 µM
TGI [40]: > 100 µM
TGI [41]: > 100 µM
TGI [42]: > 100 µM
TGI [43]: > 100 µM
TGI [44]: > 100 µM
TGI [45]: > 100 µM
TGI [46]: > 100 µM
TGI [47]: > 100 µM
TGI [48]: > 100 µM
TGI [49]: > 100 µM
TGI [50]: > 100 µM
TGI [51]: > 100 µM
TGI [52]: > 100 µM
TGI [59]: > 100 µM
TGI [53]: > 100 µM
TGI [54]: > 100 µM
TGI [55]: > 100 µM
TGI [56]: > 100 µM

COc1ccc(NC(=O)CC(=O)N2N=C(N(CCC#N)c3ccccc3Cl)CC2c2ccccc2)cc1 (centres undefined)
TGI [1]: > 100 µM
TGI [57]: > 100 µM
TGI [2]: > 100 µM
TGI [3]: > 100 µM
TGI [4]: > 100 µM
TGI [5]: > 100 µM
TGI [7]: > 100 µM
TGI [8]: > 100 µM
TGI [9]: > 100 µM
TGI [10]: > 100 µM
TGI [11]: > 100 µM
TGI [12]: > 100 µM
TGI [13]: > 100 µM
TGI [14]: > 100 µM
TGI [15]: > 100 µM
TGI [16]: > 100 µM
TGI [17]: > 100 µM
TGI [18]: > 100 µM
TGI [19]: > 100 µM
TGI [20]: > 100 µM
TGI [21]: > 100 µM
TGI [22]: > 100 µM
TGI [23]: > 100 µM
TGI [58]: > 100 µM
TGI [24]: > 100 µM
TGI [25]: > 100 µM
TGI [26]: > 100 µM
TGI [27]: > 100 µM
TGI [28]: > 100 µM
TGI [29]: > 100 µM
TGI [30]: > 100 µM
TGI [31]: > 100 µM
TGI [32]: > 100 µM
TGI [33]: > 100 µM
TGI [34]: > 100 µM
TGI [35]: > 100 µM
TGI [36]: > 100 µM
TGI [37]: > 100 µM
TGI [38]: > 100 µM
TGI [39]: > 100 µM
TGI [40]: > 100 µM
TGI [41]: > 100 µM
TGI [42]: > 100 µM
TGI [43]: > 100 µM
TGI [44]: > 100 µM
TGI [45]: > 100 µM
TGI [46]: > 100 µM
TGI [47]: > 100 µM
TGI [48]: > 100 µM
TGI [49]: > 100 µM
TGI [50]: > 100 µM
TGI [51]: > 100 µM
TGI [52]: > 100 µM
TGI [59]: > 100 µM
TGI [53]: > 100 µM
TGI [54]: > 100 µM
TGI [55]: > 100 µM
TGI [56]: > 100 µM
